The values below come from ChEMBL document CHEMBL5131521, “The N,N,O-Trisubstituted Hydroxylamine Isostere and Its Influence on Lipophilicity and Related Parameters” (ACS Med Chem Lett, 2022).

The nature of data set [1]: Lipophilicity, logD of compound at pH 7.4 by shake flask method. Format: physicochemical. Particulars: buffer.
Data set [2] is described as follows: Lipophilicity, logP of the compound by LC/UV/MS analysis. Format: physicochemical. Particulars: octanol/water.
Data set [3] can be described thus: Metabolic stability in mouse liver microsomes assessed as half life at 1 uM measured upto 60 mins by LC-MS/MS analysis. Format: ADME, Microsome. As to conditions: for half-life at 1 µM: liver microsomes; for t1/2: microsomes, 1 h, 1 µM.
A short description of data set [4]: Metabolic stability in mouse liver microsomes assessed as compound remaining at 1 uM measured upto 60 mins in presence of NADPH for 15 mins by LC-MS/MS analysis. Format: ADME, Microsome. As to conditions: for remaining at 1 h, 1 µM: liver microsomes, read-out: Stability; for Stability: microsomes, 1 h, 1 µM. For orientation: Liver microsomes are a subcellular fraction often used to study metabolism.

Data set [5] in a line: Metabolic stability in human liver microsomes assessed as compound remaining at 1 uM measured upto 60 mins in presence of NADPH for 15 mins by LC-MS/MS analysis. Format: ADME, Microsome. Particulars: for Stability: microsomes, 1 h, 1 µM; for remaining at 1 h, 1 µM: liver microsomes, read-out: Stability.
Data set [6] can be described thus: Aqueous solubility of compound in pH 7.4 phosphate buffer. Format: physicochemical.
The nature of data set [7]: Plasma protein binding in human assessed as free fraction at 1 mM by equilibrium dialysis assay. Format: ADME, cell-free. On the technique in general: Equilibrium dialysis compares concentrations on both sides of a semipermeable membrane.
Data set [8] in a line: Metabolic stability in human liver microsomes assessed as half life at 1 uM measured upto 60 mins by LC-MS/MS analysis. Format: ADME, Microsome. As to conditions: for t1/2: microsomes, 1 h, 1 µM; for half-life at 1 µM: liver microsomes.
The nature of data set [9]: Metabolic stability in human liver microsomes assessed as intrinsic clearance at 1 uM measured upto 60 mins by LC-MS/MS analysis. The data set is classed as ADME, Microsome. Particulars: 1 h.
Data set [10] in a line: Metabolic stability in mouse liver microsomes assessed as intrinsic clearance at 1 uM measured upto 60 mins by LC-MS/MS analysis. Particulars: 1 h. Format: ADME, Microsome.
A short description of data set [11]: Metabolic stability in mouse liver microsomes at 1 uM measured upto 60 mins by LC-MS/MS analysis. The data set is classed as ADME, Microsome. As to conditions: 1 h.
The subject of another data set is HepG2. Nature of the data set: Cytotoxicity against human HepG2 cells assessed as inhibition of cell growth incubated for 3 days by trypan blue assay. Particulars: HepG2, 72 h. The data set is classed as functional, cell-based.

In brackets after ≈: the same amount, converted by molar mass. Where only a bound is given, the exact number is not on record here.

In [1], `c1ccc(CCCN2CCCCC2)cc1` came in with a logD of 1. In data set [2], this compound registered a log partition coefficient (logP) of 5.1.

In data set [1], `c1ccc(COCCCON2CCCCC2)cc1` showed a logD of 3. In data set [2], this compound gave a log partition coefficient (logP) of 4.8.

Turning to `c1ccc(CCON2CCCCC2)cc1`, the logD in data set [1] was found to be 3.2. The logP in [2] was 4.8.

In the case of `c1ccc2c(c1)CCCN2OCCN1CCN(C2CCCCC2)CC1`, in data set [3], the half-life at 1 µM was determined as 3.19 min. The compound also returned a logD in data set [1] of 2.4. Further, the remaining at 1 h, 1 µM in data set [4] was found to be 4.32%. Further, the lipophilicity (logP) in [2] was 5. Also, the Stability in [5] is on record as 48.07%. The compound further displayed a solubility in data set [6] greater than 300 µM. The fraction unbound in data set [7] was 0.341. Besides, the t1/2 in [8] is given as 13.74 min.

Turning to `c1ccc(CCCC2CCCCC2)cc1`, the logP in data set [2] amounted to 6.6.

With `c1ccc2c(c1)CCCC2OCCN1CCN(C2CCCCC2)CC1` (stereo not given), the half-life at 1 µM in data set [3] stood at 3.12 min. Further, in data set [1], the logD is 2.7. Moreover, in data set [4], the remaining at 1 h, 1 µM stood at 3.98%. In addition, in [2], the logP amounted to 5. For the same compound, the Stability in data set [5] is 17.01%. The same compound returned a solubility in data set [6] of 287 µM (≈ 98.3 µg/mL). Further, the fraction unbound in data set [7] came out at 0.322. In addition, the t1/2 in data set [8] was 5.67 min.

On to `c1ccc(CCOC2CCCCC2)cc1`, for which, in [2], the lipophilicity (logP) amounted to 6.2.

For the compound `CCCCCOC1CCc2ccccc2C1` (stereo not given), the log partition coefficient (logP) in data set [2] is 6.6.

For the compound `c1ccc(COCCCOC2CCCCC2)cc1`, in [2], the lipophilicity (logP) turned out to be 6.2.

As for `COc1ccccc1OCCCN1CCOCC1`, the CLint in data set [9] is less than 5 µL/min/mg; in data set [10], 315 µL/min/mg. Besides, the half-life at 1 µM was 4.4 min in [3] and greater than 300 min in [8]. Further, in data set [1], the logD was found to be 1.3. Moreover, the remaining at 1 h, 1 µM in [4] was 10.2%; in data set [5] it was 91%. In [2], this compound had a logP of 2.3. The compound also showed a solubility in [6] of 273 µM (≈ 68.6 µg/mL). For the same compound, in data set [7], the fraction unbound was determined as 0.573.

`c1ccc(COCCCCN2CCCCC2)cc1` returned a pH-dependent lipophilicity (logD) in data set [1] of 0.9. Moreover, in [2], the logP came to 5.8.

Regarding `COc1ccccc1OCCON1CCOCC1`, the values for the CLint in data set [9] and in data set [10] were 14 µL/min/mg and 129 µL/min/mg, respectively. Moreover, the t1/2 was determined as 10.75 min in [3] and 98.54 min in [8]. The compound also had a logD in [1] of 1.3. Also, the results for the Stability in data set [4] and in data set [5] were 36.43% and 91.54%, respectively. Further, the log partition coefficient (logP) in data set [2] is 2.1. In [6], this compound had a solubility of 293 µM (≈ 74.2 µg/mL). Also, the fraction unbound in [7] stood at 0.625.

Take `c1ccc2c(c1)CCCN2CCCN1CCN(C2CCCCC2)CC1`: the half-life at 1 µM in data set [3] stood at 4.07 min; in data set [8], 5.06 min. This compound came in with a pH-dependent lipophilicity (logD) in [1] of 1.8. For the same compound, the remaining at 1 h, 1 µM in [4] worked out at 8.5%; in [5], 13.7%. Also, the logP in data set [2] turned out to be 5.3. This compound displayed a solubility in [6] of 275 µM (≈ 93.9 µg/mL). Moreover, in data set [7], the fraction unbound was 0.153.

As to `c1ccc(COCCCCC2CCCCC2)cc1`, in data set [2], the log partition coefficient (logP) stood at 6.6.

In turn, `CCCCCCN1CCc2ccccc2C1` gave a logD in [1] of 3.3. In data set [2], this compound yielded a logP of 5.3.

Consider `COc1ccccc1OCCCC1CCOCC1`, for which, in data set [9], the CLint amounted to 77 µL/min/mg. For the same compound, the figures for the Stability entry in data set [4] (BLD = below limit of detection), in data set [11] and in [5] were “Bld”, “Unstable” and 50.46%, respectively. In [2], this compound came in with a logP of 3.4. Also, the solubility in data set [6] turned out to be 244 µM (≈ 61.1 µg/mL). Moreover, in data set [7], the fraction unbound is 0.106. For the same compound, the t1/2 in [8] came to 18.07 min.

In [1], `CCCCCON1CCc2ccccc2C1` gave a logD of 4.7. Moreover, the log partition coefficient (logP) in [2] amounted to 5.9.

For `COc1ccccc1OCCOC1CCOCC1`, the values for the CLint in data set [9] and in data set [10] were 17 µL/min/mg and 196 µL/min/mg, respectively. Moreover, the t1/2 was 7.06 min in [3] and 83.41 min in data set [8]. The Stability in data set [4] worked out at 24.08%; in [5] it was 82.92%. In data set [2], this compound returned a logP of 2.1. The concentration in solution in [6] (solubility) was 275 µM (≈ 69.4 µg/mL). For the same compound, the free fraction (fraction unbound) in data set [7] amounted to 0.544.

`CCCCCCC1CCc2ccccc2C1` (stereo not given) came in with a lipophilicity (logP) in data set [2] of 7.9.

With `c1ccc2c(c1)CCCC2CCCN1CCN(C2CCCCC2)CC1` (stereo not given), the CLint in [9] worked out at 275 µL/min/mg; in data set [10], 455 µL/min/mg. Further, the half-life at 1 µM was 3.05 min in data set [3] and 5.04 min in data set [8]. The same compound came in with a log distribution coefficient (logD) in [1] of 3.9. Moreover, the remaining at 1 h, 1 µM in [4] was 3.7%; in [5], 13.6%. In data set [2], the logP came to 6.2. Besides, in [6], the concentration in solution (solubility) came to 288 µM (≈ 98.1 µg/mL). The fraction unbound in data set [7] amounted to 0.0519.

With `O=C(CCCCCCC(=O)Nc1ccccc1)NO` [VORINOSTAT], the half-inhibitory concentration (IC50) in the data set on HepG2 amounted to 3.2 ng/mL (≈ 0.0121 µM).

The term logD denotes the decadic logarithm of the distribution of all forms, ionised or not, between an organic phase and buffer at a given pH. In general, logP refers to the decadic logarithm of the partition coefficient of the neutral form, usually between octanol and water. Read a high logP as a more lipophilic compound. Broadly, the half-life is the time needed for the level to fall by half in the phase considered. Usually solubility stands for how much of the substance goes into solution per volume. A higher solubility goes with a readily soluble substance. Broadly, the fraction unbound is the share of the substance not bound to proteins or other matrix. As a reminder, the IC50 is the concentration that inhibits the measured activity by half.
